The source of these data is patent US10787433B2, “Pyridazine derivatives as EAAT2 activators” (THE BRIGHAM AND WOMEN'S HOSPITAL, INC., priority 2016, dated 2020).

The subject of experiment [1] is EAAT2. As to the kind of experiment: EAAT2 Cellular Assay: EAAT2 protein levels in PA-EAAT2 cells by Western blot. It counts as cell-based, human. The conditions noted are these: 24 hr, relative to DMSO controls. As to the method:
All of the compounds were initially evaluated in PA-EAAT2 cells, a primary astrocyte stably expressing human EAAT2 mRNAs (Kong et al., J Clin Invest. 2014:1255-67). Cells were treated with compound at 0.25 μM, 0.5 μM, 1 μM, 2.5 μM, 5 μM, 10 μM, and 25 μM for 24 hr and then harvested for measuring EAAT2 protein levels by Western blot analysis.
Background: A western blot detects proteins with antibodies after separation by electrophoresis.

The subject of experiment [2] is EAAT2. As to the kind of experiment: EAAT2 expression in mouse brain after single oral dose (semi-quantitative Western blot). The format is in vivo. The conditions noted are these: mice, single dose by oral gavage, brains harvested at 24 h post-treatment. As for the experimental part: Mice received a single dose of the compound (n=3/dose) by oral gavage. Brains were harvested at 24 h post-treatment. EAAT2 protein levels were analyzed by semi-quantitative Western blot analysis.

The mark [3] stands for this setting: 10 μM (concentration that reaches maximum activity).
Where [4] appears, read: 2.5 μM (concentration that reaches maximum activity).
Setting [5] is: 5 μM (concentration that reaches maximum activity).
[6] abbreviates: 0.25 μM (concentration that reaches maximum activity).
The mark [7] stands for this setting: 0.5 μM (concentration that reaches maximum activity).
[8] abbreviates: 1 μM (concentration that reaches maximum activity).

Take `O=C(Nc1ccc(-c2cccnc2)nn1)c1ccc(F)cc1`: in experiment [1] (setting [3]), the “Fold increase for EAAT2 at indicated concentration (maximum activity)” value (“Fold increase for EAAT2” for short) is 2.1 ± 0.2 (10 μM) fold.

As to `c1ccc(-c2ccc(OCc3ncco3)nn2)nc1`, the “Fold increase for EAAT2” value in experiment [1] (setting [4]) was 1.9 ± 0.1 (2.5 μM) fold.

`CN(C)CCOc1ccc(-c2ccccn2)nn1`: in experiment [1] (setting [4]), the “Fold increase for EAAT2” value is on record as 2.9 ± 0.2 (2.5 μM) fold.

For `c1ccc(COc2ccc(-c3ccccn3)nn2)nc1`, in experiment [1] (setting [5]), the “Fold increase for EAAT2” value was 3.0 ± 0.1 (5 μM) fold.

On to `Cn1cncc1C(=O)Nc1ccc(-c2ccccn2)nn1`, for which the “Fold increase for EAAT2” value in experiment [1] (setting [3]) was 1.8± 0.2 (10 μM) fold.

Regarding `O=S(=O)(Nc1ccc(-c2ccccn2)nn1)c1ccccc1F`, the “Fold increase for EAAT2” value in experiment [1] (setting [6]) is on record as 2.6 ± 0.2 (0.25 μM) fold.

On to `O=S(=O)(Nc1ccc(-c2ccccn2)nn1)c1ccc(F)cc1`, for which the “Fold increase for EAAT2” value in experiment [1] (setting [7]) is 2.4 ± 0.2 (0.5 μM) fold.

Turning to `CN1CCC(C(=O)Nc2ccc(-c3ccccn3)nn2)CC1`, the “Fold increase for EAAT2” value in experiment [1] (setting [7]) is given as 1.7 ± 0.1 (0.5 μM) fold.

On to `O=C(Nc1ccc(-c2ccccn2)nn1)c1ncccn1`, for which the “Fold increase for EAAT2” value in experiment [1] (setting [7]) was 1.5 ± 0.1 (0.5 μM) fold.

For `O=C(Nc1ccc(-c2ccccn2)nn1)c1cccnn1`, the “Fold increase for EAAT2” value in experiment [1] (setting [7]) is on record as 1.9 ± 0.1 (0.5 μM) fold.

`O=C(Nc1ccc(-c2ccccn2)nn1)c1cc(F)ccn1`: in experiment [1] (setting [6]), the “Fold increase for EAAT2” value is 1.7 ± 0.1 (0.25 μM) fold.

As to `O=C(Nc1ccc(-c2ccccn2)nn1)c1ccc(F)cn1`, the “Fold increase for EAAT2” value in experiment [1] (setting [6]) is reported as 1.9 ± 0.2 (0.25 μM) fold.

Turning to `O=C(Nc1ccc(-c2ccccn2)nn1)c1cccc(F)n1`, the “Fold increase for EAAT2” value in experiment [1] (setting [6]) was 1.6 ± 0.1 (0.25 μM) fold.

Regarding `O=C(Nc1ccc(-c2ccccn2)nn1)c1ccc(F)c(Cl)c1`, in experiment [1] (setting [6]), the “Fold increase for EAAT2” value is 2.2 ± 0.4 (0.25 μM) fold.

On to `O=C(Nc1ccc(-c2ccccn2)nn1)c1ccccc1Cl`, for which, in experiment [1] (setting [5]), the “Fold increase for EAAT2” value is on record as 2.0 ± 0.2 (5 μM) fold.

For `O=C(Nc1ccc(-c2ccccn2)nn1)c1cccc(Cl)c1`, the “Fold increase for EAAT2” value in experiment [1] (setting [8]) is on record as 1.5 ± 0.1 (1 μM) fold.

With `O=C(Nc1ccc(-c2ccccn2)nn1)c1ccc(Cl)cc1`, the “Fold increase for EAAT2” value in experiment [1] (setting [8]) is 1.5 ± 0.2 (1 μM) fold.

With `COc1ccc(C(=O)Nc2ccc(-c3ccccn3)nn2)cc1`, the “Fold increase for EAAT2” value in experiment [1] (setting [3]) is 2.1 ± 0.2 (10 μM) fold.

On to `NC(=O)COc1ccc(-c2ccccn2)nn1`, for which the “Fold increase for EAAT2” value in experiment [1] (setting [3]) is recorded as 1.8 ± 0.2 (10 μM) fold.

For the compound `Cc1ccccc1NC(=O)COc1ccc(-c2ccccn2)nn1`, the “Fold increase for EAAT2” value in experiment [1] (setting [3]) is 2.4 ± 0.2 (10 μM) fold.

As for `CN(C(=O)COc1ccc(-c2ccccn2)nn1)c1ccccc1`, the “Fold increase for EAAT2” value in experiment [1] (setting [3]) is 2.2 ± 0.3 (10 μM) fold.

In the case of `O=C(COc1ccc(-c2ccccn2)nn1)N1CCCCC1`, in experiment [1] (setting [3]), the “Fold increase for EAAT2” value is given as 2.6 ± 0.1 (10 μM) fold.

`CN(C)C(=O)COc1ccc(-c2ccccn2)nn1`: in experiment [1] (setting [5]), the “Fold increase for EAAT2” value is on record as 2.9 ± 0.2 (5 μM) fold.

As for `O=C(Nc1ccc(-c2ccccn2)nn1)c1cncs1`, the “Fold increase for EAAT2” value in experiment [1] (setting [5]) was 1.9 ± 0.1 (5 μM) fold.

`c1ccc(-c2ccc(OCc3nccs3)nn2)nc1`: the “Fold increase for EAAT2” value in experiment [1] (setting [3]) is 2.2 ± 0.3 (10 μM) fold.

For the compound `Cn1cncc1COc1ccc(-c2ccccn2)nn1`, the “Fold increase for EAAT2” value in experiment [1] (setting [5]) is 1.7 ± 0.1 (5 μM) fold.

`Cn1ccnc1COc1ccc(-c2ccccn2)nn1`: the “Fold increase for EAAT2” value in experiment [1] (setting [5]) is given as 1.9 ± 0.1 (5 μM) fold.

For `CC(Oc1ccc(-c2ccccn2)nn1)c1ccccn1` (centres unmarked), the “Fold increase for EAAT2” value in experiment [1] (setting [5]) is reported as 1.7 ± 0.1 (5 μM) fold.

For `CN(C)CCNc1ccc(-c2ccccn2)nn1`, the “Fold increase for EAAT2” value in experiment [1] (setting [5]) is given as 2.4 ± 0.2 (5 μM) fold.

Regarding `c1ccc(CNc2ccc(-c3ccccn3)nn2)cc1`, the “Fold increase for EAAT2” value in experiment [1] (setting [3]) was 3.1 ± 0.3 (10 μM) fold.

Turning to `c1ccc(-c2ccc(NCCCn3ccnc3)nn2)nc1`, in experiment [1] (setting [5]), the “Fold increase for EAAT2” value was 3.3 ± 0.2 (5 μM) fold.

`O=C(Nc1ccc(-c2ccccn2)nn1)c1ccc(F)cc1` [Example 4, 4-Fluoro-N-(6-(pyridin-2-yl)pyridazin-3-yl)benzamide]: in experiment [2], the “EAAT2 protein levels in mouse brain” value was “dose-dependently increased EAAT2 levels”.

For the compound `O=C(Nc1ccc(-c2ccccn2)nn1)c1ccc(F)cc1` [drawing 110], the “Fold increase for EAAT2” value in experiment [1] (setting [6]) is on record as 2.5 ± 0.3 (0.25 μM) fold.

Turning to `CNC(=O)COc1ccc(-c2ccccn2)nn1` [drawing 129], the “Fold increase for EAAT2” value in experiment [1] (setting [6]) is 2.3 ± 0.1 (0.25 μM) fold.

On to `CNC(=O)COc1ccc(-c2ccccn2)nn1` [drawing 130], for which, in experiment [1] (setting [3]), the “Fold increase for EAAT2” value is 1.8 ± 0.1 (10 μM) fold.
